According to patent US10814010B2, “FOXC2 inhibitor and methods of use thereof” (The Board of Regents of The University of Texas System, priority 2018, dated 2020):

Key:
[1] = test system: PC3 cells; experiment: MTT cell viability assay, PC3; type: cell-based
Excerpt: Inhibition of EMT in CRPC could lead to a new form of therapeutics to aid once androgen-independence is achieved. However, in order for MC-1-F2 to be considered an effective chemotherapeutic agent, its EC50 in prostate cancer needed to be determined as well as how it compares to other chemotherapeutic agents on the market and whether it is able to inhibit chemoresistance or lower the sensitivity of CRPC to commercially available drugs. In order to determine the EC50 of MC-1-F2, an MTT assay on cell viability was performed in both DU145 and PC3. […] These doses are higher than those encountered with breast cancer cell lines. This is most likely due to the lower FOXC2 expression levels founds in prostate cell lines when compared to the breast cell lines.
(§1) Cell viability was assessed by MTT (3-(4,5-Dimethylthiazol-2-yl)-2,5-Diphenyltetrazolium Bromide) assay 5,000 cells were seeded on a 96-well cell culture plate and were incubated for at least 24 hours prior to drug treatment. The MTT reagent (Fisher Scientific) was added to the culture medium 3 hours prior to the end of compound incubation. The reaction took place in the 37° C. incubator with 5% CO2 for 3 hours. Cell culture medium was then removed from the wells. Cells with the insoluble purple formazan were lysed with DMSO for 10 mins at room temperature, 200 μL per well. Absorbance was read at 570 nm using a plate reader.

[2] = test system: DU145 cells; experiment: MTT cell viability assay, DU145; type: cell-based; conditions: single agent
Experimental: In order to determine the EC50 of MC-1-F2, an MTT assay on cell viability was performed in both DU145 and PC3.
as §1

Row | Compound | effect on cell viability ([1]; single agent) | effect on cell viability [2] | EC50 ([1]; Homo sapiens, PC-3, single agent) [nM]
1 | CNC(=O)c1ccc(N2C(=S)N(c3ccc(C#N)c(C(F)(F)F)c3)C(=O)C2(C)C)cc1F [Enzalutamide, reference compound] | no effect | no effect | –
2 | CC(=O)O[C@@]12CO[C@@H]1C[C@H](O)[C@@]1(C)C(=O)[C@H](O)C3=C(C)[C@@H](OC(=O)[C@H](O)[C@@H](NC(=O)OC(C)(C)C)c4ccccc4)C[C@@](O)([C@@H](OC(=O)c4ccccc4)[C@H]21)C3(C)C [docetaxel] | – | – | 7.6
